Values joined by “and” are separate entries in the source; they are usually repeats but may differ in a detail not shown here. Identical values can stand only once. Toxic doses and inconclusive results are not listed. No stated cut-off is given here; in the data, active means T/C of 150% or more; inactive means T/C below 125%.
Tested on: L1210 leukemia ip in BDF1 mice, survival T/C
Assay: NCI In Vivo Anticancer Drug Screen. Data for tumor model L1210 Leukemia (intraperitoneal) in B6D2F1 (BDF1) mice
Conditions: endpoint: mean survival time, higher = longer survival
Method in brief: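 Survival endpoint. Drug-treated group vs vehicle group, expressed as T divided by C. Tumor passaged by transplantation.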

[1] = dose: 100.0 mg/kg/injection, schedule: Q01DX009 (ip), vehicle: saline with Tween-80
[2] = dose: 200.0 mg/kg/injection, schedule: Q01DX009 (ip), vehicle: saline with Tween-80
[3] = dose: 400.0 mg/kg/injection, schedule: Q01DX009 (ip), vehicle: saline with Tween-80
[4] = dose: 100.0 mg/kg/injection, schedule: Q04DX003 (ip), vehicle: saline
[5] = dose: 200.0 mg/kg/injection, schedule: Q04DX003 (ip), vehicle: saline
[6] = dose: 400.0 mg/kg/injection, schedule: Q04DX003 (ip), vehicle: saline
[7] = dose: 100.0 mg/kg/injection, schedule: Q01DX001 (ip), vehicle: Klucel (hydroxypropylcellulose) (HPC)
[8] = dose: 200.0 mg/kg/injection, schedule: Q01DX001 (ip), vehicle: Klucel (hydroxypropylcellulose) (HPC)
[9] = dose: 400.0 mg/kg/injection, schedule: Q01DX001 (ip), vehicle: Klucel (hydroxypropylcellulose) (HPC)
[10] = dose: 100.0 mg/kg/injection, schedule: Q01DX001 (ip), vehicle: saline
[11] = dose: 200.0 mg/kg/injection, schedule: Q01DX001 (ip), vehicle: saline
[12] = dose: 400.0 mg/kg/injection, schedule: Q01DX001 (ip), vehicle: saline
[13] = dose: 100.0 mg/kg/injection, schedule: Q01DX009 (ip), vehicle: saline
[14] = dose: 100.0 mg/kg/injection, schedule: Q04DX003 (ip), vehicle: Klucel (hydroxypropylcellulose) (HPC)
[15] = dose: 200.0 mg/kg/injection, schedule: Q04DX003 (ip), vehicle: Klucel (hydroxypropylcellulose) (HPC)
[16] = dose: 400.0 mg/kg/injection, schedule: Q04DX003 (ip), vehicle: Klucel (hydroxypropylcellulose) (HPC)

Measured: T/C

O=c1[nH]nnc2nc[nH]c12
inactive: dose: 25.0 mg/kg/injection, schedule: Q01DX001 (ip), vehicle: steriod suspending solution 109 % of control | dose: 46.1 mg/kg/injection, schedule: Q01DX001 (ip), vehicle: steriod suspending solution 100 % of control | dose: 50.0 mg/kg/injection, schedule: Q01DX001 (ip), vehicle: steriod suspending solution 113 % of control | dose: 65.9 mg/kg/injection, schedule: Q01DX001 (ip), vehicle: steriod suspending solution 100 % of control | dose: 94.2 mg/kg/injection, schedule: Q01DX001 (ip), vehicle: steriod suspending solution 102 % of control | dose: 100.0 mg/kg/injection, schedule: Q01DX001 (ip), vehicle: steriod suspending solution 109 % of control | dose: 134.5 mg/kg/injection, schedule: Q01DX001 (ip), vehicle: steriod suspending solution 97 % of control | dose: 192.1 mg/kg/injection, schedule: Q01DX001 (ip), vehicle: steriod suspending solution 101 % of control | dose: 200.0 mg/kg/injection, schedule: Q01DX001 (ip), vehicle: steriod suspending solution 100 % of control | dose: 274.4 mg/kg/injection, schedule: Q01DX001 (ip), vehicle: steriod suspending solution 103 % of control | dose: 392.0 mg/kg/injection, schedule: Q01DX001 (ip), vehicle: steriod suspending solution 108 % of control | dose: 400.0 mg/kg/injection, schedule: Q01DX001 (ip), vehicle: steriod suspending solution 105 % of control | dose: 560.0 mg/kg/injection, schedule: Q01DX001 (ip), vehicle: steriod suspending solution 95 % of control | dose: 800.0 mg/kg/injection, schedule: Q01DX001 (ip), vehicle: steriod suspending solution 96 % of control

Cc1cccc(NNC(=S)Nc2ccccc2)c1
inactive: [1] 97 % of control | [2] 97 % of control | [3] 94 % of control

O=c1c2cc([N+](=O)[O-])ccc2[nH]c2c1ccc1ccccc12
inactive: [4] 92 % of control | [5] 92 % of control | [6] 90 % of control

CCCCCCCS(=O)(=O)CCCCCCC
inactive: dose: 25.6 mg/kg/injection, schedule: Q04DX002 (ip), vehicle: saline with Tween-80 95 % of control | dose: 64.0 mg/kg/injection, schedule: Q04DX002 (ip), vehicle: saline with Tween-80 91 % of control | [1] 94 % of control | dose: 100.0 mg/kg/injection, schedule: Q04DX003 (ip), vehicle: saline with Tween-80 93 % of control | dose: 160.0 mg/kg/injection, schedule: Q04DX002 (ip), vehicle: saline with Tween-80 91 % of control | [2] 94 % of control | dose: 200.0 mg/kg/injection, schedule: Q04DX003 (ip), vehicle: saline with Tween-80 95 % of control | [3] 98 % of control | dose: 400.0 mg/kg/injection, schedule: Q04DX002 (ip), vehicle: saline with Tween-80 95 % of control | dose: 400.0 mg/kg/injection, schedule: Q04DX003 (ip), vehicle: saline with Tween-80 90 % of control

Cc1ccc(SC2=C(Br)C(=O)c3ccccc3C2=O)cc1
inactive: dose: 37.5 mg/kg/injection, schedule: Q01DX001 (ip), vehicle: carboxymethylcellulose (CMC) 92 % of control | dose: 75.0 mg/kg/injection, schedule: Q01DX001 (ip), vehicle: carboxymethylcellulose (CMC) 94 % of control | dose: 150.0 mg/kg/injection, schedule: Q01DX001 (ip), vehicle: carboxymethylcellulose (CMC) 103 % of control

CN(C)C(=O)SSC(=S)N(C)C
inactive: dose: 4.0 mg/kg/injection, schedule: Q01DX015 (ip), vehicle: carboxymethylcellulose (CMC) 93 % of control | dose: 8.0 mg/kg/injection, schedule: Q01DX015 (ip), vehicle: carboxymethylcellulose (CMC) 92 % of control | dose: 16.0 mg/kg/injection, schedule: Q01DX015 (ip), vehicle: carboxymethylcellulose (CMC) 106 % of control | dose: 32.0 mg/kg/injection, schedule: Q01DX015 (ip), vehicle: carboxymethylcellulose (CMC) 97 % of control and 98 % of control | dose: 64.0 mg/kg/injection, schedule: Q01DX015 (ip), vehicle: carboxymethylcellulose (CMC) 98 % of control | dose: 128.0 mg/kg/injection, schedule: Q01DX015 (ip), vehicle: carboxymethylcellulose (CMC) 96 % of control

CC(CC(=O)NC(N)=O)(NC(N)=O)NC(N)=O
inactive: [7] 100 % of control | [8] 101 % of control | [9] 95 % of control

CCOP(=O)(OCC)C(c1ccccc1)C(c1ccccc1)c1ccccc1 (stereo unspecified)
inactive: dose: 100.0 mg/kg/injection, schedule: Q04DX003 (ip), vehicle: other 97 % of control | dose: 200.0 mg/kg/injection, schedule: Q04DX003 (ip), vehicle: other 93 % of control | dose: 400.0 mg/kg/injection, schedule: Q04DX003 (ip), vehicle: other 101 % of control

CCOCC(=O)C(C#N)c1ccc(Cl)c(Cl)c1 (stereo unspecified)
inactive: dose: 100.0 mg/kg/injection, schedule: Q01DX001 (ip), vehicle: carboxymethylcellulose (CMC) 94 % of control

C=CC(=O)N(C)OC
inactive: [10] 101 % of control | [4] 100 % of control | [11] 96 % of control | [5] 104 % of control | [12] 112 % of control | [6] 98 % of control

COc1c(Br)c(-c2ccccc2)nc2ccccc12
inactive: [10] 100 % of control | [11] 88 % of control | [12] 92 % of control

CN(C)N=Nc1nn(C2OC(CO)C(O)C2O)cc1C(N)=O (stereo unspecified)
inactive: dose: 100.0 mg/kg/injection, schedule: Q01DX005 (ip), vehicle: saline 121 % of control | dose: 200.0 mg/kg/injection, schedule: Q01DX005 (ip), vehicle: saline 113 % of control

CC(C)CN(CC(=O)N1CC(=O)Nc2ccccc21)CC(C)C
inactive: [13] 94 % of control | [4] 95 % of control | dose: 200.0 mg/kg/injection, schedule: Q01DX009 (ip), vehicle: saline 87 % of control | [5] 95 % of control | [6] 92 % of control

CCC(C(OC(C)=O)C(C)C)[N+](=O)[O-] (stereo unspecified)
inactive: dose: 9.38 mg/kg/injection, schedule: Q01DX001 (ip), vehicle: other 104 % of control | dose: 18.75 mg/kg/injection, schedule: Q01DX001 (ip), vehicle: other 105 % of control

CC(=O)C1(C)OC(c2ccccc2)=NC1=O (stereo unspecified)
inactive: [10] 104 % of control | [11] 93 % of control | [12] 115 % of control

Oc1c2ccsc2cc2ccsc12
inactive: dose: 100.0 mg/kg/injection, schedule: Q01DX001 (ip), vehicle: saline with Tween-80 94 % of control | dose: 200.0 mg/kg/injection, schedule: Q01DX001 (ip), vehicle: saline with Tween-80 94 % of control | dose: 400.0 mg/kg/injection, schedule: Q01DX001 (ip), vehicle: saline with Tween-80 91 % of control

O=C(Nc1ccc([N+](=O)[O-])cc1Cl)SCc1ccccc1
inactive: [7] 96 % of control | dose: 100.0 mg/kg/injection, schedule: Q01DX009 (ip), vehicle: Klucel (hydroxypropylcellulose) (HPC) 94 % of control and 101 % of control | dose: 100.0 mg/kg/injection, schedule: Q04DX002 (ip), vehicle: Klucel (hydroxypropylcellulose) (HPC) 95 % of control and 105 % of control | [14] 92 % of control | [8] 96 % of control | dose: 200.0 mg/kg/injection, schedule: Q01DX009 (ip), vehicle: Klucel (hydroxypropylcellulose) (HPC) 97 % of control and 106 % of control | dose: 200.0 mg/kg/injection, schedule: Q04DX002 (ip), vehicle: Klucel (hydroxypropylcellulose) (HPC) 103 % of control and 105 % of control | [15] 95 % of control | [9] 96 % of control | dose: 400.0 mg/kg/injection, schedule: Q04DX002 (ip), vehicle: Klucel (hydroxypropylcellulose) (HPC) 94 % of control and 95 % of control | [16] 92 % of control

ClCC1CC2c3ccccc3C1c1ccccc12 (stereo unspecified)
inactive: [4] 94 % of control | [5] 87 % of control | [6] 90 % of control

C=CCN(CC=C)c1nn[nH]n1
inactive: [14] 92 % of control | [15] 88 % of control | [16] 88 % of control

BrCC[CH2][Sn]([Br])([Br])[Br]
inactive: dose: 50.0 mg/kg/injection, schedule: Q01DX009 (ip), vehicle: saline 107 % of control | [13] 103 % of control

CC(Cl)CN1Cc2ccccc2CCc2ccccc2C1 (stereo unspecified)
inactive: dose: 25.0 mg/kg/injection, schedule: Q04DX002 (ip), vehicle: Klucel (hydroxypropylcellulose) (HPC) 101 % of control | dose: 50.0 mg/kg/injection, schedule: Q04DX002 (ip), vehicle: Klucel (hydroxypropylcellulose) (HPC) 92 % of control

— PubChem BioAssay AID248 (DTP/NCI, 2004)
